Laboratory results published in US10815444B2, “Use of specific derivatives of quaternized nitrogen compounds as additives in fuels and lubricants” (BASF SE, priority 2013, dated 2020).
Values belong to the compound of their own block, whether it stands above or below them.

How the values were obtained:
[1] = Protocol: The partition coefficient is determined by means of various methods according to the value.
[2] = Storage stability of formulations at −20° C.; assay type: physicochemical
Protocol: The following formulations were tested for storage stability at −20° C.: […]
a) 1:5 Dilution in Solvent Naphtha (5 Parts):
b) 1:5:1 Dilution in 2-Ethylhexyl Nitrate (5 Parts) and Solvent Naphtha (1 Part)

[3] = Motor oil compatibility to standard DGMK 531 1-A (filtration time); conditions: for filtration time: 10 g additive + 10 g motor oil, 90° C. three days, 500 ml EN590 B7 diesel, 0.8 μm membrane filter, 200 mbar; for filterability / motor oil compatibility pass/fail: DGMK 531 1-A
Protocol: Determination to standard DGMK 531 1-A with EN590 B7 fuel from Aral, unadditized, and Wintershall Multi-Rekord Top 15W-40 motor oil.
10 g in each case of motor oil and 10 g of the additive to be tested are weighed into a 500 ml Erlenmeyer flask and homogenized. The flask containing the mixture is loosely sealed with a glass stopper and conditioned in a drying cabinet at a temperature of 90±3° C. for three days. After the conditioning, the sample is cooled in a fume hood at room temperature for one hour. The mixture is then made up with 500 ml of diesel fuel and mixed thoroughly. A membrane filter of diameter 50 mm and pore size 0.8 μm is inserted into the filtration apparatus. Mixture is filtered through the membrane filter with the aid of a reduced pressure of 200 mbar. The filtration time is measured.

[4] = DW10 Na soap IDID test (clean-up), exhaust gas temperatures on cold start; conditions: CU, 70 mg/kg active compound
Protocol: 3. IDID Test—Determination of Additive Effect on Internal Injector Deposits
The formation of deposits within the injector was characterized by the deviations in the exhaust gas temperatures of the cylinders at the cylinder outlet on cold starting of the DW10 engine.
To promote the formation of deposits, 1 mg/l of sodium salt of an organic acid, 20 mg/l of dodecenylsuccinic acid and 10 mg/l of water were added to the fuel.
The test is conducted as a dirty-up clean-up test (DU-CU).
Thereafter, the CU fuel is used to start the CU without deinstalling and cleaning the injectors. After the CU run over 8 h, after a rest phase of at least eight hours, a cold start of the engine is conducted, followed by idling for 10 minutes. The evaluation is effected by the comparison of the temperature profiles for the individual cylinders after the cold start in the DU and CU runs.
The IDID test indicates the formation of internal deposits in the injector. The characteristic used in this test is the exhaust gas temperature of the individual cylinders. In an injector system without IDIDs, the exhaust gas temperatures of the cylinders increase homogeneously.
The temperature sensors are beyond the cylinder head outlet in the exhaust gas manifold. Significant deviation of the individual cylinder temperatures (e.g. >20° C.) indicates the presence of internal injector deposits (IDIDs).
The tests (DU and CU) are each conducted with run time 8 h. The one-hour test cycle from CEC F-098-08 (see FIG. 1) is run through 8 times in each case. In the event of deviations of the individual cylinder temperatures of greater than 45° C. from the mean for all 4 cylinders, the test is stopped early.
To examine the influence of the additives on the performance of direct injection diesel engines, as a further test method, the IDID engine test was conducted, in which the exhaust gas temperatures in the cylinders at the cylinder outlet were determined on cold starting of the DW10 engine. (cf. method description above)
A DW10 direct injection diesel engine with common rail system from the manufacturer Peugeot was used, which was employed in the CEC F-098-08 test method. The method that was used derived from CEC F-098-08, with the difference that, rather than 1 ppm of Zn for artificial inducement of formation of deposits, 1 ppm by weight of sodium naphthenate and 20 ppm by weight of dodecenylsuccinic acid were used in each case. The fuel used was a commercial B7 diesel fuel according to EN 590 from Aral. The test duration is shortened to 8 hours compared to method CEC F-098-08. After respective DU and CU phases, the engine is cooled and then started at idling speed.
II. CU (clean-up) After the DU phase, the engine is operated with additized fuel without cleaning the injectors beforehand.
Again, the exhaust gas temperatures of the 4 cylinders (“C1” to “C4”) were measured at each of the cylinder outlets after 0 minutes (“ϑ0”) and after 5 minutes (“ϑ5”). The results of the exhaust gas temperature measurements with average values (“Δ”) and the greatest differences from Δ in the downward (“−”) and upward (“+”) directions for the two test runs are summarized in the following overview: […]

[5] = XUD9 engine test (keep clean), flow restriction, CEC F-23-01; conditions: 0.1 mm needle stroke, Aral EN590 B7 fuel
Source text: 1. XUD9 Test—Determination of Flow Restriction
The procedure was according to the standard provisions of CEC F-23-01.
Test according to above procedure CEC F-23-01 in Peugeot XUD9 engine.

[6] = DW10 Zn engine test (clean-up), engine power; conditions: 25 mg/kg active compound
Protocol: 2.2. DW10 Dirty-Up Clean-Up (DU-CU)
The DU-CU test is based on CEC test procedure F-098-08 Issue 5. The procedure is described in Issue 5 of the test procedure (CEC F-98-08). This is done using the same test setup and the PEUGEOT DW10 engine type.
The DU-CU test consists of two individual tests which are run in succession. The first test serves to form deposits (DU), the second to remove the deposits (CU). After the DU, the power loss is determined. After the end of the DU run, the engine is not operated for at least 8 hours and is cooled to ambient temperature. Thereafter, the CU fuel is used to start the CU without deinstalling and cleaning the injectors. The deposits and power loss ideally decline over the course of the CU test.
The initial power P0,cu [kW] is calculated from the measured torque at full load 4000/min directly after the test has started and the engine has run hot in the CU. The procedure is likewise described in Issue 5 of the test procedure.
The final power (Pend,cu) is determined in the 12th cycle in stage 12 (see table, FIG. 2). Here too, the operation point is full load 4000/min. Pend,cu [kW] is calculated from the torque measured.
The test was conducted with a Peugeot DW10 engine, which is used in CEC F-98-08 procedure, except that more severe conditions were used in the dirty-up part:
I. Dirty-up: the more severe conditions allow distinctly faster formation of injector deposits than under standard CEC F-98-08 conditions: The engine was operated at full load (4000 rpm) with EN590 B7 Aral, unadditized, containing 3 mg/kg Zn, for 4 h.

[7] = DW10 Na power-loss test (keep-clean); conditions: 8 h, 1 ppm Na + 20 ppm dodecenylsuccinic acid and 150 ppm additive
Protocol: To examine the efficacy of the inventive compounds against power loss caused by metals such as Na, K and others (and not by Zn as described above), an IDID engine test was used. During the run, the power is measured to CEC F-098-08.

[8] = 1:5:1 dilution in 2-ethylhexyl nitrate (5 parts) and Solvent Naphtha (1 part)
[9] = 1:5 dilution in Solvent Naphtha (5 parts)

partition coefficient log Pow [1]: 2.9
Compound: CCCCC(CC)CO (stereo not drawn) [2-ethylhexanol]

Compound: C12/14-NMe3-Methyl Oxalate [Comparative example 1, reference compound]
storage stability observation [2, 8]: solidification after 1 day
storage stability observation [2, 9]: solidification after 44 days
filtration time [3]: > 300 s
filterability [3]: very poor filterability
motor oil compatibility pass/fail [3]: fail

storage stability observation [2, 8]: clear liquid after 14 days
storage stability observation [2, 9]: clear liquid after 60 days
filtration time [3]: 114 s
filterability [3]: good filterability
motor oil compatibility pass/fail [3]: pass
Compound: C12/14-NMe3-2-Propylheptyl Oxalate [Inventive example 1]
average exhaust gas temperature (Δ) [4]: 77 °C
evaluation of IDID clean-up [4]: the IDIDs formed were removed
greatest difference from Δ in the downward direction [4]: −8 °C
greatest difference from Δ in the upward direction [4]: +5 °C
exhaust gas temperature cylinder C1 ([4]; after 0 minutes (ϑ0)): C1: 28 °C
exhaust gas temperature cylinder C2 ([4]; after 0 minutes (ϑ0)): C2: 27 °C
exhaust gas temperature cylinder C3 ([4]; after 0 minutes (ϑ0)): C3: 27 °C
exhaust gas temperature cylinder C4 ([4]; after 0 minutes (ϑ0)): C4: 26 °C
exhaust gas temperature cylinder C1 ([4]; after 5 minutes (ϑ5)): C1: 78 °C
exhaust gas temperature cylinder C2 ([4]; after 5 minutes (ϑ5)): C2: 82 °C
exhaust gas temperature cylinder C3 ([4]; after 5 minutes (ϑ5)): C3: 77 °C
exhaust gas temperature cylinder C4 ([4]; after 5 minutes (ϑ5)): C4: 69 °C
Flow restriction ([5]; dosage 24 mg/kg): 46.6%
Flow restriction ([5]; dosage 36 mg/kg): 14.5%
Flow restriction ([5]; dosage 48 mg/kg): 4.5%
Engine power on commencement of clean-up test ([6]; 1 ppm Zn in EN590 B7, after dirty-up): 90.2 kW
Engine power after engine running for 3 h ([6]; 1 ppm Zn in EN590 B7, clean-up): 97.7 kW
Engine power until the end of the clean-up test ([6]; 1 ppm Zn in EN590 B7, clean-up lasting 8 h): 97.7 kW
Change in power in the test [7]: +0.2%
Engine power after the test [7]: 96.6 kW
Engine power before the test [7]: 96.4 kW

partition coefficient log Pow [1]: 1.3
Compound: CCCCCO [pentanol]
